Laboratory results published in ChEMBL document CHEMBL1140693, “4,5-diarylisoxazole Hsp90 chaperone inhibitors: potential therapeutic agents for the treatment of cancer” (J Med Chem, 2008).
pIC50: −log10 of the molar value.

Assays:
Heat shock protein HSP90 = Heat shock protein HSP90 (Homo sapiens, UniProt P07900+P08238)
Description: Displacement of fluorescent labelled VER-00051001 from human Hsp90-beta by FP assay

HCT-116 [1] = assay: cells; conditions: Homo sapiens, HCT-116, 24 h
Description: Growth inhibition of human HCT116 cells after 24 hrs by SRB assay

[2] = AUClast in human HCT116 cells bearing NCr athymic mouse at 4 mg/kg, cassette dosing; format: ADME, organism-based, HCT-116; design: time 0 - last, dose 4 mg/kg; conditions: in vivo
[3] = Terminal half life in human HCT116 cells bearing NCr athymic mouse at 4 mg/kg, cassette dosing; format: ADME, organism-based, HCT-116; design: dose 4 mg/kg; conditions: in vivo, read-out: t1/2 lambda z (converted)
[4] = Tmax in human HCT116 cells bearing NCr athymic mouse at 4 mg/kg, cassette dosing; format: ADME, organism-based, HCT-116; design: dose 4 mg/kg; conditions: in vivo
[5] = Cmax in human HCT116 cells bearing NCr athymic mouse at 4 mg/kg, cassette dosing; format: ADME, organism-based, HCT-116; design: dose 4 mg/kg; conditions: in vivo
[6] = Apparent terminal-phase volume of distribution (Vz/F) in human HCT116 cells bearing NCr athymic mouse at 4 mg/kg, cassette dosing; conditions: in vivo
[7] = Apparent clearance in human HCT116 cells bearing NCr athymic mouse at 4 mg/kg, cassette dosing; format: ADME, organism-based, HCT-116; design: dose 4 mg/kg; conditions: in vivo
[8] = Growth inhibition of human U87MG cells by SRB assay; format: functional, U-87MG ATCC; conditions: U-87 MG
[9] = Growth inhibition of human PC3M cells by SRB assay; format: functional; conditions: PC-3M
SK-MEL-28 = assay: Growth inhibition of human SKMel28 cells by SRB assay; format: functional
HCT-116 [10] = assay: Inhibition of tumor growth in human HCT116 cells bearing mouse assessed as tumor weight at 50 mg/kg, ip qd after 12 days relative to control; conditions: HCT-116, ip, 288 h
SF-268 = assay: Growth inhibition of human SF268 cells by SRB assay; format: functional
DU-145 = assay: Growth inhibition of human DU145 cells by SRB assay; format: functional

Row | SMILES | IC50 (Heat shock protein HSP90) | GI50 (HCT-116 [1]) | pIC50 (Heat shock protein HSP90) | further results
1 | CCNC(=O)c1[nH]nc(-c2cc(Cl)c(O)cc2O)c1-c1cccc(CNCCN2CCCCC2)c1 | 1 µM | 25.1 µM | – | –
2 | CCNC(=O)c1[nH]nc(-c2cc(Cl)c(O)cc2O)c1-c1cccc(CN2CCC(CO)CC2)c1 | 2.63 µM | > 80 µM | – | –
3 | CCNC(=O)c1noc(-c2cc(Cl)c(O)cc2O)c1-c1ccc(CN2CCN(C)CC2)cc1 | 0.039 µM | 0.125 µM | – | –
4 | CCNC(=O)c1noc(-c2cc(-c3ccccc3)c(O)cc2O)c1-c1ccc(CN2CCOCC2)cc1 | 0.022 µM | 0.152 µM | – | –
5 | CCNC(=O)c1noc(-c2cc(Cl)c(O)cc2O)c1-c1cccc(N2CCN(C)CC2)c1 | 0.343 µM | 2.78 µM | – | –
6 | CCNC(=O)c1[nH]nc(-c2cc(Cl)c(O)cc2O)c1-c1ccc(CNCCS(C)(=O)=O)cc1 | 0.035 µM | 2.16 µM | – | –
7 | CCNC(=O)c1[nH]nc(-c2cc(Cl)c(O)cc2O)c1-c1cccc(CNCc2ccccc2C(F)(F)F)c1 | 0.231 µM | 3.11 µM | – | –
8 | CCNC(=O)c1noc(-c2cc(CCc3ccccc3)c(O)cc2O)c1-c1ccc(CN2CCOCC2)cc1 | 0.032 µM | 0.029 µM | – | –
9 | CCNC(=O)c1noc(-c2cc(-c3ccccc3)c(O)cc2O)c1-c1ccc(CN(CC)CC)cc1 | 0.074 µM | 0.091 µM | – | AUC(0-t) [2]: 1.25 µM·h; half-life [3]: 14.6 h; Tmax [4]: 4 h; Cmax [5]: 252 nM; Vz/F [6]: 0.736 L; CL/F [7]: 0.583 mL/min
10 | CCNC(=O)c1noc(-c2cc(CCc3cccc(F)c3)c(O)cc2O)c1-c1ccc(CN2CCOCC2)cc1 | 0.026 µM | 0.058 µM | – | –
11 | CCNC(=O)c1noc(-c2cc(C(C)C)c(O)cc2O)c1-c1ccc(CN2CCOCC2)cc1 [LUMINESPIB] | – | – | – | AUC(0-t) [2]: 1.72 µM·h; GI50 [8]: 0.008 µM; GI50 [9]: 0.006 µM; GI50 (SK-MEL-28): 0.005 µM; half-life [3]: 9.5 h; T/C at 50 mg/kg (HCT-116 [10]): 49.8%; GI50 (SF-268): 0.006 µM; Tmax [4]: 1 h; Cmax [5]: 385 nM; Vz/F [6]: 0.478 L; GI50 (DU-145): 0.005 µM; CL/F [7]: 0.583 mL/min
12 | C=CCNC1=C2C[C@@H](C)C[C@H](OC)[C@H](O)[C@@H](C)/C=C(\C)[C@H](OC(N)=O)[C@@H](OC)/C=C\C=C(/C)C(=O)NC(=CC1=O)C2=O [TANESPIMYCIN] | – | 0.16 µM | – | –
13 | CCNC(=O)c1noc(-c2cc(-c3ccccc3F)c(O)cc2O)c1-c1ccc(CN2CCOCC2)cc1 | 0.039 µM | 0.087 µM | – | –
14 | CCNC(=O)c1[nH]nc(-c2cc(Cl)c(O)cc2O)c1-c1cccc(CN(C)CCO)c1 | 0.914 µM | 9.24 µM | – | –
15 | CCNC(=O)c1noc(-c2cc(CC)c(O)cc2O)c1-c1ccc(CN(CC)CC)cc1 | 0.013 µM | 0.041 µM | – | –
16 | CCc1cc(-c2[nH]nc(C)c2-c2ccc3c(c2)OCCO3)c(O)cc1O | – | 5.8 µM | – | –
17 | CCNC(=O)c1noc(-c2cc(CC)c(O)cc2OC)c1-c1ccc(CN2CCOCC2)cc1 | 0.54 µM | 2.15 µM | – | –
18 | CCNC(=O)c1noc(-c2cc(-c3ccccc3C)c(O)cc2O)c1-c1ccc(CN2CCCCC2)cc1 | 0.014 µM | 0.114 µM | – | –
19 | CCNC(=O)c1[nH]nc(-c2cc(Cl)c(O)cc2O)c1-c1ccc(CNC(=O)C[C@@H]2CCCN2)cc1 | 0.057 µM | 0.275 µM | – | –
20 | CCNC(=O)c1noc(-c2cc(CC)c(OC)cc2OC)c1-c1ccc(CN2CCOCC2)cc1 | 1.56 µM | 32 µM | – | –
21 | CCNC(=O)c1n[nH]c(-c2cc(Cl)c(O)cc2O)c1-c1ccc(OC)cc1 | – | – | – | GI50 [8]: 1.2 µM; GI50 [9]: 2.2 µM; GI50 (SK-MEL-28): 0.48 µM; GI50 (SF-268): 0.32 µM; GI50 (DU-145): 1.2 µM
22 | CCNC(=O)c1[nH]nc(-c2cc(Cl)c(O)cc2O)c1-c1ccc(CN(CC)CC)cc1 | 0.146 µM | 0.315 µM | – | –
23 | CCNC(=O)c1noc(-c2cc(Cl)c(O)cc2O)c1-c1ccc(CNCCS(C)(=O)=O)cc1 | 0.014 µM | 1.98 µM | – | –
24 | CCNC(=O)c1[nH]nc(-c2cc(Cl)c(O)cc2O)c1-c1ccc(CN2CCS(=O)(=O)CC2)cc1 | 0.027 µM | 0.826 µM | – | –
25 | CCNC(=O)c1[nH]nc(-c2cc(Cl)c(O)cc2O)c1-c1ccc(CN2CCOCC2)cc1 | 0.037 µM | 0.29 µM | – | –
26 | CCNC(=O)c1noc(-c2cc(C(C)(C)C)c(O)cc2O)c1-c1ccc(CN2CCOCC2)cc1 | 0.008 µM | 0.07 µM | – | AUC(0-t) [2]: 0.751 µM·h; half-life [3]: 5 h; Tmax [4]: 1 h; Cmax [5]: 203 nM; Vz/F [6]: 0.809 L; CL/F [7]: 1.85 mL/min

Row | SMILES | IC50 (Heat shock protein HSP90) | GI50 (HCT-116 [1]) | pIC50 (Heat shock protein HSP90) | further results
27 | CCNC(=O)c1noc(-c2cc(CCc3ccc(F)cc3)c(O)cc2O)c1-c1ccc(CN2CCOCC2)cc1 | 0.02 µM | 0.039 µM | – | –
28 | CCNC(=O)c1[nH]nc(-c2cc(Cl)c(O)cc2O)c1-c1cccc(CN2CCC[C@H]2CO)c1 | 1.66 µM | 11.4 µM | – | –
29 | CCNC(=O)c1[nH]nc(-c2cc(Cl)c(O)cc2O)c1-c1cccc(CN2CCN(C(C)=O)CC2)c1 | 1.29 µM | 32.7 µM | – | –
30 | CCNC(=O)c1noc(-c2cc(CCc3ccc(F)cc3)c(O)cc2O)c1-c1ccc(CN2CCCCC2)cc1 | 0.026 µM | 0.029 µM | – | –
31 | CCNC(=O)c1[nH]nc(-c2cc(Cl)c(O)cc2O)c1-c1ccc(CNC(=O)C2CCCN(C)C2)cc1 (configuration not stated) | 0.115 µM | 3.47 µM | – | –
32 | CCNC(=O)c1noc(-c2cc(-c3ccccc3)c(O)cc2O)c1-c1ccc(CN2CCCCC2)cc1 | 0.014 µM | 0.086 µM | – | AUC(0-t) [2]: 0.995 µM·h; half-life [3]: 7.3 h; Tmax [4]: 1 h; Cmax [5]: 237 nM; Vz/F [6]: 0.652 L; CL/F [7]: 1.03 mL/min
33 | CCNC(=O)c1[nH]nc(-c2cc(Cl)c(O)cc2O)c1-c1ccc(CN(CCO)CCO)cc1 | 0.142 µM | 7.8 µM | – | –
34 | CCNC(=O)c1noc(-c2cc(Cl)c(O)cc2O)c1-c1ccc(CN(CC)CC)cc1 | 0.064 µM | 0.056 µM | – | –
35 | CCNC(=O)c1noc(-c2cc(-c3ccc(F)cc3)c(O)cc2O)c1-c1ccc(CN2CCCCC2)cc1 | 0.036 µM | 0.035 µM | – | –
36 | CCNC(=O)c1[nH]nc(-c2cc(Cl)c(O)cc2O)c1-c1cccc(CNCCOC)c1 | 0.728 µM | 12.9 µM | – | –
37 | CCNC(=O)c1noc(-c2cc(Cl)c(O)cc2O)c1-c1ccc(CN2CCCC2)cc1 | 0.039 µM | 0.118 µM | – | –
38 | CC(=O)c1ccc(CNC(=O)c2c[nH]nc2-c2cc(Cl)c(O)cc2O)cc1 | 0.258 µM | 11.6 µM | – | –
39 | CCNC(=O)c1[nH]nc(-c2cc(Cl)c(O)cc2O)c1-c1cccc(CNCCN2CCOCC2)c1 | 0.431 µM | 12.5 µM | – | –
40 | CCNC(=O)c1[nH]nc(-c2cc(Cl)c(O)cc2O)c1-c1cccc(CN2CCOCC2)c1 | 0.222 µM | 2.69 µM | – | –
41 | Oc1cc(O)c(-c2n[nH]cc2N2CCN(Cc3ccccc3)CC2)cc1Cl | – | 6.5 µM | 6.22 | –
42 | CCNC(=O)c1noc(-c2cc(Cl)c(O)cc2O)c1-c1ccc(CN2CCCCC2)cc1 | 0.019 µM | 0.061 µM | – | –
43 | CCNC(=O)c1noc(-c2cc(Cl)c(O)cc2O)c1-c1ccc(OC)cc1 | – | 0.12 µM | – | AUC(0-t) [2]: 1.73 µM·h; GI50 [8]: 0.028 µM; GI50 [9]: 0.22 µM; GI50 (SK-MEL-28): 0.045 µM; half-life [3]: 3.9 h; GI50 (SF-268): 0.034 µM; Tmax [4]: 1 h; Cmax [5]: 482 nM; Vz/F [6]: 0.432 L; GI50 (DU-145): 0.23 µM; CL/F [7]: 1.27 mL/min
44 | CCNC(=O)c1noc(-c2cc(Cl)c(O)cc2O)c1-c1ccc(CN2CCOCC2)cc1 | – | 0.083 µM | – | –
45 | CCNC(=O)c1noc(-c2cc(Cl)c(O)cc2O)c1-c1cccc(N2CCOCC2)c1 | 0.127 µM | 0.634 µM | – | –
46 | CCNC(=O)c1noc(-c2cc(Cl)c(O)cc2O)c1-c1ccc(CN2CCC(O)CC2)cc1 | 0.028 µM | 1.29 µM | – | –
47 | CCNC(=O)c1noc(-c2cc(C(C)(C)C)c(O)cc2O)c1-c1ccc(CN2CCCCC2)cc1 | 0.011 µM | 0.065 µM | – | –
48 | CCNC(=O)c1noc(-c2cc(CC)c(O)cc2O)c1-c1ccc(CN2CCOCC2)cc1 | 0.029 µM | 0.025 µM | – | –
49 | CCNC(=O)c1noc(-c2cc(C(C)C)c(O)cc2O)c1-c1ccc(CN(CC)CC)cc1 | 0.006 µM | 0.006 µM | – | –
50 | CCNC(=O)c1noc(-c2cc(Cl)c(O)cc2O)c1-c1ccc(CN(C)C)cc1 | 0.018 µM | 0.069 µM | – | –
51 | CCNC(=O)c1noc(-c2cc(CC)c(OC)cc2O)c1-c1ccc(CN2CCOCC2)cc1 | 0.015 µM | 0.08 µM | – | –
52 | CCNC(=O)c1noc(-c2cc(Cl)c(O)cc2O)c1-c1ccc(CN2CCS(=O)(=O)CC2)cc1 | 0.021 µM | 0.47 µM | – | –
